pIC50: −log10 of the molar value. Structures can show the parent of a compound that is named as a salt.
What was measured:
Type in all cases: functional, cell-based
PC-3 = assay: Cytotoxicity against human PC-3 cells assessed as reduction in cell viability incubated for 72 hrs by SRB assay; conditions: PC-3, 72 h
MDA-MB-231 = assay: Cytotoxicity against human MDA-MB-231 cells assessed as reduction in cell viability incubated for 72 hrs by SRB assay; conditions: MDA-MB-231, 72 h
HCT-116 = assay: Cytotoxicity against human HCT-116 cells assessed as reduction in cell viability incubated for 72 hrs by SRB assay; conditions: HCT-116, 72 h
BV-2 = assay: Antiinflammatory activity in mouse BV-2 cells assessed as inhibition of LPS-induced NO production pretreated for 3 hrs followed by LPS stimulation measured after 24 hrs by microplate reader assay; conditions: dose 2.5-10 µM, time 27.0 hrs, DDE = dose-dependent effect

Row | SMILES | pIC50 (PC-3) | pIC50 (MDA-MB-231) | pIC50 (HCT-116) | Activity (BV-2)
1 | CSC(=O)c1c(C(C)C)cc(O)c(C)c1O[C@@H]1O[C@H](CO)[C@@H](O)[C@H](O)[C@H]1O | < 4.40 | < 4.40 | < 4.40 | 
2 | Cc1c(O)c(C)c(C(C)C)c(O[C@@H]2O[C@H](CO)[C@@H](O)[C@H](O)[C@H]2O)c1O | 5.39 | < 4.40 | < 4.40 | Dde
3 | CCc1c(C)c(O)c(C)c(O)c1C(=O)SC | < 4.40 | < 4.40 | < 4.40 | 
4 | CSC(=O)c1c(O[C@@H]2O[C@H](COC(C)=O)[C@@H](O)[C@H](O)[C@H]2O)c(C)c(O)c(C)c1C(C)C |  | < 4.40 | < 4.40 | 
5 | CSC(=O)c1c(O[C@@H]2O[C@H](CO)[C@@H](O)[C@H](O)[C@H]2O)c(C)c(OC(=O)c2c(O)c(C)c(O)c(C)c2C(C)C)c(C)c1C(C)C |  | 4.96 | < 4.40 | 
6 | COc1cccc2c1C(=O)c1c(O)c3c(c(O)c1C2=O)C[C@@](O)(C(=O)CO)C[C@@H]3O[C@H]1C[C@H](N)[C@H](O)[C@H](C)O1 [DOXORUBICIN HYDROCHLORIDE] | 6.40 | 6.40 |  | 
7 | CCc1c(O)c(C)c(O[C@@H]2O[C@H](CO)[C@@H](O)[C@H](O)[C@H]2O)c(C(=O)SC)c1C(C)C | < 4.40 | < 4.40 | < 4.40 | 
8 | CCc1c(C)c(O)c(C)c(O[C@@H]2O[C@H](CO)[C@@H](O)[C@H](O)[C@H]2O)c1C(=O)SC | < 4.40 | < 4.40 | < 4.40 | Dde
9 | CSC(=O)c1c(O[C@@H]2O[C@H](CO)[C@@H](O)[C@H](O)[C@H]2O)c(C)c(O)c(C)c1C(C)C | < 4.40 | < 4.40 | < 4.40 | Dde
10 | CSC(=O)c1c(O)c(C)c(O)c(C)c1C(C)C |  | < 4.40 | 5.41 | Dde
11 | Cc1c(O)cc(C(C)C)c(C)c1O | < 4.40 | < 4.40 | < 4.40 | 
12 | CCc1c(C)c(O)c(C)c(O[C@@H]2O[C@H](COC(C)=O)[C@@H](O)[C@H](O)[C@H]2O)c1C(=O)SC |  | 4.80 | < 4.40 | 
13 | COC(=O)c1c(O)c(C)c(O)c(C)c1C(C)C | < 4.40 | < 4.40 | 5.14 | 
14 | COc1c(C)c(O)c(C)c(C(C)C)c1C(=O)SC | < 4.40 | 4.44 | < 4.40 | Dde
15 | CSC(=O)c1c(C)c(C)c(O)c(C)c1O[C@@H]1O[C@H](CO)[C@@H](O)[C@H](O)[C@H]1O | < 4.40 | < 4.40 | < 4.40 | 

— ChEMBL document CHEMBL5120911, “Suncheonosides E-M and Benzothioate Derivatives from the Marine-Derived Streptomyces sp. ZSN77” (J Nat Prod, 2022)
